In paper PMC4426599, “Structure and mechanism of an antibiotics-synthesizing 3-hydroxykynurenine C-methyltransferase” (Scientific Reports, 2015):

Key:
Ss-SibL (SibL) [1] = biological target: T1, Ss-SibL (SibL) (Streptosporangium sibiricum, UniProt C0LTM6); assay: X-ray crystal structure of ternary complex with SAH, […] A; format: binding; conditions: SAH bound; D-/L-3-HK used in crystallization; pH 7.7; substrate site
T1 construct: recombinant His6-tagged (pET-21b), E. coli BL21(DE3), Ni-NTA and gel filtration; homodimer; tag removal not described

Ss-SibL (SibL) [2] = biological target: T1, Ss-SibL (SibL); assay: X-ray crystal structure of binary complex, […] A; format: binding; conditions: crystals obtained by using SAM, modelled as SAH; pH 7.7; SAM site; also bound in ternary complex 4U1Q
[3] = biological target: the molecule itself; assay: crystal structure; crystals of apo Ss-SibL, of the binary complex with SAH and of the ternary complex with SAH and 3-HK; sitting-drop vapour diffusion; homodimer seen in the crystal

Nc1c(O)cccc1C(=O)C[C@H](N)C(=O)O [L-3-HK]
X-ray crystal structure of ternary complex with SAH, 2.1 A (Ss-SibL (SibL) [1]): the electron densities clearly indicate that the bound substrate is L-3-HK

Nc1ncnc2c1ncn2[C@@H]1O[C@H](CSCC[C@H](N)C(=O)O)[C@@H](O)[C@H]1O [S-adenosylhomocysteine]
X-ray crystal structure of binary complex, 2.6 A (Ss-SibL (SibL) [2]): the binary Ss-SibL/SAH and the ternary Ss-SibL/SAH/3HK complex crystals diffracted to higher resolution

B1: Streptosporangium sibiricum SibL (enzyme)
chain: MSSELSALVPVLFGHAAFQQLNAGCQLGLFELLHERGPLSAEEVADALRLPRRSADILLLGTTALGLSTVTDGGYRNGAPIGAAFRDGLWPVLRDIVQYQDKIAYQPAADYVESLRTGQNAGIRHFPGTTRDLYSRLAAVPGLEELFYRGMHAWSQLSNPVLLAQPDFTRVHRVLDVGGGDAVNAVALARAHPSLRVTVLDRPGALEVARKTIAEAGLEERVRTHAADIFTDSYPAGHDCVLFAHQLVIWSPEQNLTLLRKAYDAVEPGGRVLVFNAFTDDDRTGPLYAALDNVYFTTLPFRHSTIHRWADCESWLREAGFTDVGRTAPPGWTPHGVVSGSRPR
notes: SibL, SAM-dependent 3-hydroxykynurenine C-methyltransferase of Streptosporangium sibiricum; amplified by PCR from S. sibiricum genomic DNA and cloned into pET-21b; Homodimer in the crystals; The ternary complex was first phased with selenomethionine-substituted protein; also called Ss-SibL; 3-hydroxykynurenine C-methyltransferase; source: E. coli BL21 (DE3), purified (Ni-NTA, Superdex-200 size …)
stoichiometry N [3]: 2
